Earlier results on two compounds are cited in patent US20260306413A1, “COLONIC PURGATIVE TABLET AND COLONIC PURGATIVE COMPRISING SAME” (PHARMBIO KOREA CO., LTD., priority 2023, published 2026).

With `O=P(O)(O)O` [oral sodium phosphate, sodium phosphate], the complications entry (oral) is “acute phosphate nephropathy”.

With Phosphate, the colon cleansing effect result (compared to PEG) is given as “colon cleansing effect in smaller doses compared to PEG”. For the same compound, the side effects entry (frequency vs PEG) is “side effects such as abdominal inflation, pain, and dizziness at a similar frequency to PEG”.
